From patent publication US5177251A, “Halogenated tetraenyl prostaglandin derivatives” (G. D. Searle & Co., priority 1991, dated 1993)

How the values were obtained:
diarrhea = experiment: Diarrheal assay in rats; format: in vivo, male Charles River rats; conditions: intragastric, up to 8 hours
Method: (§1) Diarrhea is an undesirable side effect commonly associated with antisecretory and cytoprotective prostaglandins. […] Groups of 6 adult male Charles River rats weight rang®180 to 200 g, are fasted for 24 hours prior to administering the test substance. The prostaglandin to be tested is administered intragastrically in iso-osmotic phosphate buffer at a volume of 10 ml/kg at doses ranging from 100 to 3000 μg/kg. Control animals receive only the vehicle. The rats are placed in individual wire mesh cages and t he trays lined with brown paper. Diarrhea is assessed at hourly intervals on all or none basis for up to 8 hours after administration of the prostaglandin. Diarrhea is defined as any loose or watery stool. ED50 values are assessed for each hourly diarrheagenic response.

[1] = system: ethanol-induced gastric lesions; experiment: Ethanol induced gastric lesion assay in rats (cytoprotective); format: in vivo, male Charles River rats; conditions: rat, oral, 30 minutes before absolute ethanol; read-out: Ethanol-Induced Gastric Lesion *MED (Minimal effective dose)
Method: In the assay, 0.005-0.5 mg/kg is orally administered to adult 180-220 gram male Charles River rats which have been deprived of food for 24 hours. Thirty minutes later, 1.0 ml of absolute ethanol is administered intragastrically. The rats are sacrificed 60 minutes after alcohol administration and the gastric mucosa are visually examined for the presence of lesions. The number and severity of lesions are scored. A compound is judged active at the concentration evaluated if it provides a statistically significant reduction in the number and/or severity of lesions compared to the control group.

[2] = Acid stability in acetic acid:THF:water, thin layer chromatography; format: physicochemical; conditions: 3:1:1 acetic acid:THF:water, room temperature, TLC, all time points
Method: Comparison of Acid Stability of Compound of Example 1 with its parent non-fluorinated analog.
Each compound (4 mg) was separately dissolved in 0.4 ml of a 3:1:1 solution of acetic acid:THF:water and kept at room temperature. Relative decomposition was assessed by thin layer chromatography analysis of aliquots withdrawn at 30 minutes, 1,2, 4 and 6 hours.

gastric acid secretion = experiment: Gastric acid secretion assay in dogs (Pavlov gastric pouch, meal-stimulated); format: in vivo, dog (adult female beagles); conditions: into gastric pouch; for ED50: Canis lupus familiaris, dog, total acid output over 4 hours after feeding, read-out: Gastric Antisecretory (Dog) ED50; for Gastric Antisecretory (Dog), % inhibition at 0.3: at 0.3 (column unit μg/kg)
Text: The standard test used to detect gastric antisecretory activity is described as follows.
Adult female beagles, 6-11 kg body weight, were surgically prepared with innervated (Pavlov) gastric pouches that were drained by Thomas-type gastric cannulae. Following surgical recovery, each dog was trained to stand quietly in a dog restraining sling and was conscious for all studies. Experiments began at least 3 weeks after surgery, and no dog was used more than once per week.
Dogs were food-deprived with access to water for 24 hours prior to experiments. Following a 30 minute basal collection period, the prostaglandins or vehicle were administered into the gastric pouch in a 2-3 ml volume. Thirty minutes later the gastric pouch was emptied and gastric secretion was stimulated by feeding 10-12 oz of dog food (Fromm All Beef, Federal Foods Inc., Thiensville, Wis.). Gastric juice samples were collected from the pouch by gravity drainage over a 4 hour period at 30 minute intervals. The volume of secretion was measured (ml/30 min), and the acidity (mequiv/L) was determined by electrometric titration to pH 7.0 with 0.1 N NaOH. These two parameters were multiplied to obtain the total acid output (mequiv/30 minutes) for each collection period.
Percent reduction of total acid output from control was calculated over each 4 hour experiment for doses of prostaglandin. ED50 values and 95% confidence limits were determined from inhibition of secretion curves.

Diarrheal assay in rats = format: in vivo, male Charles River rats; conditions: in vivo, po; rat, intragastric, up to 8 hours; read-out: Diarrhea Rat ED50
Method: as §1

Compound | Diarrhea Rat ED50 (diarrhea) [μ/kg] | minimal effective dose [1] [µg/kg] | decomposition at 30 minutes, 1, 2, 4 and 6 hours [2] | ED50 (gastric acid secretion) [µg/kg] | Gastric Antisecretory (Dog), % inhibition at 0.3 (gastric acid secretion) [%] | TD50 at 8 h (Diarrheal assay in rats) [µg/kg]
COC(=O)CC/C=C\CC[C@H]1C(=O)C[C@@H](O)[C@@H]1/C=C/C[C@@](O)(/C=C/C1=CCCC1)CF (relative stereo) [Example 1, (±)-methyl 7-[2β-[6-(1-cyclopenten-1-yl)-4R-(fluoromethyl)-4-hydroxy-1E,5E-hexadienyl]-3α-hydroxy-5-oxo-lo-cyclopentyl]-4Z-heptenoate] | > 3160 | 1 | virtually no decomposition products were observed | – | – | –
COC(=O)CC/C=C\CC[C@H]1C(=O)C[C@@H](O)[C@@H]1/C=C/C[C@@](O)(/C=C/C1=CCCC1)C(F)F (relative stereo) [Example 3, (±)-methyl 7-[2β-[6-(1-cyclopenten-1-yl)-4R-(difluoromethyl)-4-hydroxy-1E,5E-hexadienyl]-3α-hydroxy-5-oxo-1α-cyclopentyl]-4Z-heptenoate] | > 3160 | 10 | – | > 1 | – | –
COC(=O)CC/C=C\CC[C@H]1C(=O)C[C@@H](O)[C@@H]1/C=C/C[C@@](O)(/C=C/C1=CCCC1)C(F)(F)F (relative stereo) [Example 4, (±)-methyl 7-[2β-[6-(1-cyclopenten-1yl)-4R-hydroxy-4-(trifluoromethyl)-1E,5E-hexadienyl]-3α-hydroxy-5-oxo-1α-cyclopentyl]-4Z-heptenoate] | > 3160 | 100 | – | > 0.1 | – | –
COC(=O)CC/C=C\CC[C@H]1C(=O)C[C@@H](O)[C@@H]1/C=C/C[C@@](O)(/C=C/C1=CCCC1)CCl (relative stereo) [Example 5, (±)-methyl 7-[2β-[4R-(chloromethyl)-6-(1-cyclopenten-1-yl)-4-hydroxy-1E, 5E-hexadienyl]-3α-hydroxy-5-oxo-1α-cyclopentyl]-4Z-heptenoate] | – | 10 | – | > 0.1 | – | –
COC(=O)CC/C=C\CC[C@H]1C(=O)C[C@@H](O)[C@@H]1/C=C/C[C@@](C)(O)/C=C/C=C/C(F)(F)F (relative stereo) [Example 6, (±)-methyl 11α,16R-dihydroxy-16-methyl-9-oxo-20-(trifluoromethyl) prosta-4Z,13E,17E,19E-tetraen-1-oate] | – | – | – | – | 84 | –
COC(=O)CC/C=C\CC[C@H]1C(=O)C[C@@H](O)[C@@H]1/C=C/C[C@@](C)(O)/C=C/C=C(\C)C(F)(F)F (relative stereo) [Example 7, (±)-methyl 11α,16R-dihydroxy-16,20-dimethyl-9-oxo-20-(trifluoromethyl) prosta-4Z,13E,17E, 19E-tetraen-1-oate] | – | 50 | – | – | 74 | –
COC(=O)CC/C=C\CC[C@H]1C(=O)C[C@@H](O)[C@@H]1/C=C/C[C@@](C)(O)/C=C/C(F)=C(C)C (relative stereo) [Example 8, (±)-methyl 19-fluoro-11α,16R-dihydroxy-16,20,20-trimethyl-9-oxoprosta-4Z,13E,17E, 19-tetraen-1-oate] | – | 1 | – | – | – | –
COC(=O)CC/C=C\CC[C@H]1C(=O)C[C@@H](O)[C@@H]1/C=C/C[C@@](C)(O)/C=C/C=C(Cl)Cl (relative stereo) [Example 9, (±)-methyl 20,20-dichloro-11α,16R-dihydroxy-16-methyl-9-oxoprosta-4Z,13E,17E,19-tetraen-1-oate] | – | 2.5 | – | – | – | 1000
COC(=O)CC/C=C\CC[C@H]1C(=O)C[C@@H](O)[C@@H]1/C=C/C[C@@](O)(/C=C/C=C(C)C)CF (relative stereo) [Example 10, methyl 16R-(fluoromethyl)-11α,16-dihydroxy-20,20-dimethyl-9-oxoprosta-4Z,13E,17E,19-tetraen-1-oate] | > 3160 | 25 | – | < 0.3 | – | –
COC(=O)CC/C=C\CC[C@H]1C(=O)C[C@@H](O)[C@@H]1/C=C/C[C@@](O)(/C=C/C1=CCCC1)CF [Example 2, methyl 7-[2β-[6-(1-cyclopenten-1-yl)-4R-(fluoromethyl)-4-hydroxy-1E,5E-hexadienyl]-3α-hydroxy-5-oxo-1R,1α-cyclopentyl]-4Z-heptenoate] | > 3160 | 1 | – | – | – | –
